The target of assay [1] is T1, HPK1 (Homo sapiens, UniProt Q92918).
T1 construct: purchased Signal Chem M23-11G-10
T1 sequence (Q92918 1-346 limits assumed): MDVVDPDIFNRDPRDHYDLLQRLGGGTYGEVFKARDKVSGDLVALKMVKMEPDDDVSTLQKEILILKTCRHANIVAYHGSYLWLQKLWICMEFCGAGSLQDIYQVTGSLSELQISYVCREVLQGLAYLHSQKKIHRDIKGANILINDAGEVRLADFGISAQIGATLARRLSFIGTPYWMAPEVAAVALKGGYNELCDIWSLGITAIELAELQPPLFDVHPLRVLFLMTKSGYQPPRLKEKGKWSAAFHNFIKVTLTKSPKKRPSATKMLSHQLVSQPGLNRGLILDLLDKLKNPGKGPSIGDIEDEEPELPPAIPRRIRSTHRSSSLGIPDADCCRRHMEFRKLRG
The assay is described as follows: HPK1 enzyme inhibition assay (ADP-Glo). It counts as biochemical. As to conditions: MBP substrate, ATP.

The subject of assay [2] is HPK1 p-SLP-76 in Jurkat cells. The experiment in a line: HPK1 p-SLP-76 inhibition assay in Jurkat cells (HTRF). It counts as cell-based. As to conditions: Homo sapiens, 4 h compound, anti-CD3 stimulation 20 min.
The target of assay [3] is T2, FLT3-ITD (Homo sapiens, UniProt P36888).
T2 construct: The FLT3-ITD protein was purchased from Invitrogen (PV6190)
T2 sequence (P36888 1-993): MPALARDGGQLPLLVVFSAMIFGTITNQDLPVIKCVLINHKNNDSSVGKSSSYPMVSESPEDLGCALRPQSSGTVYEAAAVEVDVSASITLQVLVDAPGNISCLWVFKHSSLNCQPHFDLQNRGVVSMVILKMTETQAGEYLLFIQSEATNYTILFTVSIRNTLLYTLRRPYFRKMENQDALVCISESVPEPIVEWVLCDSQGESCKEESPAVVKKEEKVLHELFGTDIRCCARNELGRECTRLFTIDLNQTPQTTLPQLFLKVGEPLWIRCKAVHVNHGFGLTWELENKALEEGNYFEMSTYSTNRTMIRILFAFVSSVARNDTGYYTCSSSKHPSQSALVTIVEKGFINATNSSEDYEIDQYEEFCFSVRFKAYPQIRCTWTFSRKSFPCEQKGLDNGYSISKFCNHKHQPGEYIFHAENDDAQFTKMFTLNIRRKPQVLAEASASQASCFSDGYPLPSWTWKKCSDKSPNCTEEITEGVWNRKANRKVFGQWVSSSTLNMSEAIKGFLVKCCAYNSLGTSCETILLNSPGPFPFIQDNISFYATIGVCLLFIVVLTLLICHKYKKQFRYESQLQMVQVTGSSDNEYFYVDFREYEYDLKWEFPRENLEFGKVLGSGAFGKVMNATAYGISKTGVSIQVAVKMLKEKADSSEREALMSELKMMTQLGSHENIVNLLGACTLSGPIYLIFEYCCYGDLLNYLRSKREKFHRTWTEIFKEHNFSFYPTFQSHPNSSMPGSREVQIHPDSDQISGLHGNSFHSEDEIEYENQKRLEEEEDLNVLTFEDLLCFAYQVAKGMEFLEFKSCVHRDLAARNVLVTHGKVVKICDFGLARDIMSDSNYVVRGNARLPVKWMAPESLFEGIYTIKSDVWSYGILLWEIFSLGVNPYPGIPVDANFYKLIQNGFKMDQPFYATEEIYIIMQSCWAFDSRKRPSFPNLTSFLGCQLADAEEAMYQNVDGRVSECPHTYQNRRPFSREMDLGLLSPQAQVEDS
The assay is described as follows: FLT3-ITD enzyme inhibition assay (HTRF KinEASE-TK). It counts as biochemical. As to conditions: FLT3-ITD protein, ATP 15 μM. As to the method: The compound was dissolved in 100% DMSO at the concentration of 10 mM. The FLT3-ITD protein was purchased from Invitrogen (PV6190). 5 μL per well of 2×FLT3-ITD protein was added to assay plate containing the test compound, centrifuged at 1000 rpm for 1 minute, and then incubated at 25° C. for 15 minutes. HTRF KinEASE-TK kit was purchased from Cisbio (62TK0PEC) and ATP was purchased from Thermo Fisher Scientific (R0441). TK-Substrate-biotin and ATP were added 5 μL per well mixture of 2×TK-Substrate-biotin (final conc. is […]) and ATP (final conc. is 15 μM), centrifuged at 1000 rpm for 1 minute, then incubated at 25° C. for 60 minutes. Then added 10 μL of detection buffer (0.25×TK-antibody Eu3+-cryptate, 0.125 μM streptavidine-XL 665) to the assay plate and centrifuged at 1000 rpm for 1 minute then incubated at 25° C. for 60 minutes and 4° C. incubated for overnight, the product was determined. Based on the results, the IC50 value of the compound was calculated.

In the case of `O=C1CNCCN1c1cccc(-c2cnc3[nH]cc(C#Cc4ccccn4)c3c2Cl)c1` [Example 7, 1-(3-(4-chloro-3-(pyridin-2-ylethynyl)-1H-pyrrolo[2,3-b]pyridin-5-yl)phenyl) piperazin-2-one], the concentration for half-maximal inhibition (IC50) (usually the concentration needed to halve the response being measured) was 0.01 to 0.1 µM in assay [1], 3 to 10 µM in assay [2] and 0.01 to 0.1 µM in assay [3].

Regarding `CCc1c[nH]c2ncc(-c3nc(N4CCNCC4=O)sc3C)c(Cl)c12` [Example 20, 1-(4-(4-chloro-3-ethyl-1H-pyrrolo[2,3-b]pyridin-5-yl)-5-methylthiazol-2-yl)piperazin-2-one], the values for the IC50 in assay [1], in assay [2] and in assay [3] were 0.1 to 1 µM, > 10 µM and 0.01 to 0.1 µM, respectively.

As to `CCc1c[nH]c2ncc(-c3cccc(N4CCN(C(=O)COC)CC4=O)c3)c(Cl)c12` [Example 25, 1-(3-(4-chloro-3-ethyl-1H-pyrrolo[2,3-b]pyridin-5-yl)phenyl)-4-(2-methoxyacetyl)piperazin-2-one], the IC50 in assay [1] is ≤ 0.01 µM; in assay [2], ≤ 0.3 µM; in assay [3], ≤ 0.01 µM.

With `CCc1c[nH]c2ncc(-c3cccc(N4CCN(C(=O)[C@@H](N)Cc5ccccc5)CC4=O)c3)c(Cl)c12` [Example 43, 4-(L-phenylalanyl)-1-(3-(4-chloro-3-ethyl-1H-pyrrolo[2,3-b]pyridin-5-yl)phenyl)piperazin-2-one], the IC50 in assay [1] is ≤ 0.01 µM; in assay [2], 3 to 10 µM; in assay [3], 0.01 to 0.1 µM.

`CCc1c[nH]c2ncc(-c3cccc(N4CCN(C(=O)CNC(=O)[C@@H](N)C(C)C)CC4=O)c3)c(Cl)c12` [Example 44, (S)-2-amino-N-(2-(4-(3-(4-chloro-3-ethyl-1H-pyrrolo[2,3-b]pyridin-5-yl)phenyl)-3-oxopiperazin-1-yl)-2-oxoethyl)-3-methylbutanamide]: the IC50 in assay [1] was ≤ 0.01 µM; in assay [2], 0.3 to 3 µM; in assay [3], ≤ 0.01 µM.

In the case of `CCc1c[nH]c2ncc(-c3cccc(N4CCN(C(=O)COc5ccc(C[C@@H](N)C(=O)O)cc5)CC4=O)c3)c(Cl)c12` [Example 45, (R)-2-amino-3-(4-(2-(4-(3-(4-chloro-3-ethyl-1H-pyrrolo[2,3-b]pyridin-5-yl)phenyl)-3-oxopiperazin-1-yl)-2-oxoethoxy)phenyl)propanoic acid], the IC50 in assay [1] is ≤ 0.01 µM; in assay [2], > 10 µM; in assay [3], ≤ 0.01 µM.

Take `CCc1c[nH]c2ncc(-c3cccc(N4CCN(C(=O)CCCO[C@@H]5O[C@H](CO)[C@@H](O)[C@H](O)[C@H]5O)CC4=O)c3)c(Cl)c12` [Example 48, 1-(3-(4-chloro-3-ethyl-1H-pyrrolo[2,3-b]pyridin-5-yl)phenyl)-4-(4-(((2R,3R,4S,5S,6R)-3,4,5-trihydroxy-6-(hydroxymethyl)tetrahydro-2H-pyran-2-yl)oxy)butanoyl)piperazin-2-one]: the IC50 in assay [1] is ≤ 0.01 µM; in assay [2], > 10 µM; in assay [3], ≤ 0.01 µM.

On to `CCc1c[nH]c2ncc(-c3cccc(N4CCN(C(=O)COc5cccc(C6O[C@H](CO)[C@@H](O)[C@H](O)[C@H]6O)c5)CC4=O)c3)c(Cl)c12` (stereo partly drawn) [Example 50, 1-(3-(4-chloro-3-ethyl-1H-pyrrolo[2,3-b]pyridin-5-yl)phenyl)-4-(2-(3-((3R,4R,5S,6R)-3,4,5-trihydroxy-6-(hydroxymethyl)tetrahydro-2H-pyran-2-yl)phenoxy)acetyl)piperazin-2-one], for which the concentration for half-maximal inhibition (IC50) in assay [1] was ≤ 0.01 µM; in assay [2], 0.3 to 3 µM; in assay [3] it was ≤ 0.01 µM.

Turning to `CS(=O)(=O)N1CCN(c2cccc(-c3cnc4[nH]cc(C5CC5)c4c3Cl)c2)C(=O)C1` [Example 53, 1-(3-(4-chloro-3-cyclopropyl-1H-pyrrolo[2,3-b]pyridin-5-yl)phenyl)-4-(methylsulfonyl)piperazin-2-one], the concentration for half-maximal inhibition (IC50) in assay [1] was ≤ 0.01 µM; in assay [2] it was 0.3 to 3 µM; in assay [3] it was ≤ 0.01 µM.

For the compound `CN(C)CCCS(=O)(=O)N1CCN(c2cccc(-c3cnc4[nH]cc(CC(F)F)c4c3Cl)c2)C(=O)C1` [Example 60, 1-(3-(4-chloro-3-(2,2-difluoroethyl)-1H-pyrrolo[2,3-b]pyridin-5-yl)phenyl)-4-((3-(dimethylamino)propyl)sulfonyl)piperazin-2-one], the IC50 in assay [1] is ≤ 0.01 µM; in assay [2] it was 0.3 to 3 µM; in assay [3] it was ≤ 0.01 µM.

The record behind these values is patent US20240368158A1, “KINASE MODULATORS, COMPOSITIONS COMPRISING THE KINASE MODULATOR, AND METHODS OF USING THE SAME” (BIOFRONT LTD, priority 2021, published 2024).
